Experiments:
Type in all cases: biochemical
[1] = system: abnormally expanded PolyQ protein; assay: in vitro screening assay of abnormally expanded PolyQ protein aggregation by the turbidity method; conditions: screening of PolyQ aggregation inhibiting compounds
Description: The present inventors established an in vitro screening assay system capable of conveniently evaluating the aggregation of abnormally expanded PolyQ protein by the turbidity method (U.S. Pat. No. 6,632,616).

Thio-Q62 protein [2] = assay: protein aggregation turbidity assay; conditions: 10 μM thio-Q62, PBS, 37° C.; arginine 100, 200 or 400 mM; proline 400 mM; Thio-Q62 alone = 100%
Procedure: In the subsequent experiments, the protein aggregation turbidity assay was performed by the method described in Non-Patent Document 6. Specifically, it was performed as follows.
(§1) A solution in which abnormally expanded proteins were dissolved in physiological saline phosphate (PBS) was used as a measurement sample. The solution was incubated at 37° C., and turbidity at 405 nm was measured every 24 hours using a microplate reader “Spectramax Plus plate reader” (Molecular Devices Inc.).
As an abnormally expanded PolyQ protein, a Thioredoxin-Q62 (Thio-Q62) fusion protein consisting of Thioredoxin and a PolyQ stretch with 62 glutamines was used.
As a control, Thio-Q62 protein alone was incubated in the same manner, and the turbidity was measured every 24 hours.
As controls, a solution containing Thio-Q62 protein alone, and a solution containing Thio-Q62 protein and 400 mM proline were incubated in the same manner, respectively, and turbidity was measured after 5 days. […] The relative turbidity (%) of each solution was measured. The turbidity of the solution containing Thio-Q62 protein alone was set to 100%. In the figure, values represent means±SEM (n=3). “*” represents p<0.05, “***” represents p<0.001, “n.s.” represents not significant.

Thio-Q62 protein [3] = assay: seed-induced polyQ aggregation reaction (turbidity); conditions: 10 μM Thio-Q62 + seeds, 400 mM arginine or proline, 37° C., 7 days
Procedure: as §1

O=C(O)[C@@H]1CCCN1 [proline, reference compound]
PolyQ aggregation inhibitory activity [1]: no PolyQ aggregation-inhibitory effect
relative turbidity after 5 days (Thio-Q62 protein [2]): did not exert any anti-aggregation effect
seed-induced increase in turbidity (Thio-Q62 protein [3]): the effects as observed with arginine was not obtained

Reference: patent US20190314311A1, “PHARMACEUTICAL COMPOSITION” (JAPAN SCIENCE AND TECHNOLOGY AGENCY, priority 2016, published 2019)
